These results are taken from patent US12030880B2, “Iminosulfanone compound as bromodomain protein inhibitor and pharmaceutical composition and medical use thereof” (CHIA TAI TIANQING PHARMACEUTICAL GROUP CO., LTD., priority 2018, dated 2024).

Assay [1] concerns MV4-11 cells. Description: Cell proliferation activity assay in MV4-11. The assay is classed as cell-based. The note with it: Homo sapiens, inhibiting cell proliferation, 72 hours, Cell-Titer Blue. Here is the method:
(§1) Human acute lymphoblastic leukemia cell line MV4-11 cells were cultured in PRIM1640 medium plus 10% fetal bovine serum (FBS, purchased from Biological Industries, BI) and 1% penicillin/streptomycin double antibody (P/S, purchased from Life Technology) at 37° C. with 5% CO2. On the day before the compound test, MV4-11 cells were spread in a 96-well plate (purchased from Corning) at a concentration of 8000 cells/195 μL/well. After 24 hours, the compound was serially diluted 4-fold with 100% DMSO starting from 10 mM (9 concentrations in total), and then 2 μL of the compound at each concentration was added to 48 μL of PRIM1640 medium for dilution. 5 μL of the diluted compound at each concentration was added to the wells spread with the cell suspension, and the compound and cells were co-incubated in a cell incubator for 72 hours (3 days). Then the mixture was added with 35 μL of Cell-Titer Blue reagent (purchased from Promega) and incubated for another 4 hours. The fluorescence values (excited at 560 nm, detected at 590 nm) were then read on Flexstation III, and the data were calculated using GraphPad Prism software to give IC50 value of the compound in inhibiting cell proliferation.

The test system of assay [2] is Kasumi-1 cells. Nature of the assay: Cell proliferation activity assay in Kasumi-1. The assay is classed as cell-based. The note with it: Homo sapiens, inhibiting cell proliferation, 72 hours, Cell-Titer Blue. Here is the method: as §1, with “myeloblastic” for “lymphoblastic”, “Kasumi-1” for “MV4-11”, “20%” for “10%”, “5000” for “8000”
Assay [3] concerns the target BRD4 (BD1) (Homo sapiens (Human), UniProt O60885). Description: In vitro BRD4 (BD1) enzymatic activity assay (HTRF). The format is binding. The note with it: GST-BRD4 (BD1, 44-168 aa). On the procedure: In the present application, IC50 values of the compounds in inhibiting BRD4 (BD1) enzyme binding reaction were determined by homogeneous time resolved fluorescence (HTRF). A compounds was serially diluted 5-fold with 100% DMSO starting from 0.2 mM (7 concentrations in total), and then 2 μL of the compound at each concentration was added to 48 μL of a reaction buffer (20 mM HEPES pH 7.5, 150 mM NaCl, 5 mM DTT, 0.005% Tween 20, and 100 μg/mL BSA) for dilution, and mixed well. 2.5 μL of the resulting mixture was added to a 384-well plate (OptiPlate-384, purchased from PerkinElmer), then 5 μL of GST-BRD4 (BD1, 44-168 aa) (final concentration: 1 nM) was added, and the resulting mixture was centrifuged, and fully mixed. 2.5 μL of a short peptide Biotin-AHA-SGRGK(Ac)GGK(Ac)GLGK(Ac)GGAK(Ac) RHRKV (final concentration: 100 nM) was then added to initiate the reaction (total reaction volume: 10 μL). The 384-well plate was placed in an incubator at 23° C. to react for 1 hour, and then 5 μL of Eu3+ cryptate-labled anti-GST antibody (purchased from Cisbio) and 5 μL of Streptavidin-XL-665 (purchased from Cisbio) were added to terminate the reaction. After being incubated in the incubator for another 1 hour, the fluorescence values (excited at 320 nm, emitted light at 665 nm and 620 nm being detected, and the ratio of the two being the enzyme binding signal) were read on Envision (purchased from PerkinElmer). The binding strength of each compound to BRD4 (BD1) protein was determined respectively at 7 concentrations, and the data were calculated using GraphPad Prism software to obtain the IC50 value of the compound.

Assay [4] has as its target BRD4 (BD2) (Homo sapiens (Human), UniProt O60885). Nature of the assay: In vitro BRD4 (BD2) enzymatic activity assay (HTRF). The note with it: GST-BRD4 (BD2, 349-460 aa). The format is binding. Here is the method: In the present application, IC50 values of the compounds in inhibiting BRD4 (BD2) enzyme binding reaction were determined by homogeneous time resolved fluorescence (HTRF). A compound was serially diluted 5-fold with 100% DMSO starting from 1 mM (7 concentrations in total), and then 2 μL of the compound at each concentration was added to 18 μL of a reaction buffer (20 mM HEPES pH 7.5, 150 mM NaCl, 5 mM DTT, 0.005% Tween 20, and 100 μg/mL BSA) for dilution. After being mixed well, 2 μL of the compound at each concentration was added to 48 μL of the above reaction buffer for dilution, and mixed well (final concentration of the compound in DMSO: 0.1%). 2.5 μL of the resulting mixture was added to a 384-well plate (OptiPlate-384, purchased from PerkinElmer), then 5 μL of GST-BRD4 (BD2, 349-460 aa) (final concentration: 2 nM) was added, and the resulting mixture was centrifuged, and fully mixed. 2.5 μL of a peptide Biotin-AHA-SGRGK(Ac)GGK(Ac)GLGK(Ac)GGAK(Ac) RHRKV (final concentration: 200 nM) was then added to initiate the reaction (total reaction volume: 10 μL). The 384-well plate was placed in an incubator at 23° C. to react for 1 hour, and then 5 μL of Eu3+ cryptate-labled anti-GST antibody (purchased from Cisbio) and 5 μL of Streptavidin-XL-665 (purchased from Cisbio) were added to terminate the reaction. After being incubated in the incubator for another 1 hour, the fluorescence values (excited at 320 nm, emitted light at 665 nm and 620 nm being detected, and the ratio of the two being the enzyme binding signal) were read on Envision (purchased from PerkinElmer). The binding strength of each compound to BRD4 (BD2) protein was determined respectively at 7 concentrations, and the data were calculated using GraphPad Prism software to obtain the IC50 value of the compound.

Each structure is given as a SMILES string.

Consider `CCNC(=O)c1cc2c(-c3cc(N=S(C)(C)=O)ccc3Oc3ccc(S(C)(=O)=O)cc3)cn(C)c(=O)c2[nH]1` [Example 1, 4-{5-{[dimethyl(oxo)-λ^6-sulfanylidene]amino}-2-[4-(methylsulfonyl)phenoxy]phenyl}-N-ethyl-6-methyl-7-oxo-6,7-dihydro-1H-pyrrolo[2,3-c]pyridine-2-carboxamide], for which the IC50 in assay [1] amounted to 124 nM; in assay [2], 322 nM.

As for `Cn1cc(-c2cc(N=S(C)(C)=O)ccc2Oc2ccc(C#N)cc2F)c2cc[nH]c2c1=O` [Example 2, 4-{4-{[dimethyl(oxo)-λ^6-sulfanylidene]amino}-2-(6-methyl-7-oxo-6,7-dihydro-1H-pyrrolo[2,3-c]pyridin-4-yl)phenoxy}-3-fluorobenzonitrile], the half-maximal inhibitory concentration (IC50) in assay [1] worked out at 15.1 nM; in assay [2], 6.6 nM.

On to `Cn1cc(-c2cc(N=S(C)(C)=O)ccc2Oc2ccc(S(C)(=O)=O)cc2)c2cc[nH]c2c1=O` [Example 3, 4-{5-{[dimethyl(oxo)-λ^6-sulfanylidene]amino}-2-[4-(methylsulfonyl)phenoxy]phenyl}-6-methyl-1,6-dihydro-7H-pyrrolo[2,3-c]pyridin-7-one], for which the 50% inhibitory concentration (IC50) in assay [3] was 7.7 nM; in assay [4], 0.45 nM; in assay [1] it was 30.9 nM; in assay [2], 155 nM.

On to `Cc1cccc(Cl)c1Oc1ccc(N=S(C)(C)=O)cc1-c1cn(C)c(=O)c2[nH]ccc12` [Example 6, 4-{2-(2-chloro-6-methylphenoxy)-5-[dimethyl(oxo)-λ^6-sulfanylidene]aminophenyl}-6-methyl-1,6-dihydro-7H-pyrrolo[2,3-c]pyridin-7-one], for which the IC50 in assay [3] stood at 26.4 nM; in assay [4], 0.93 nM; in assay [1] it was 90.4 nM; in assay [2], 13.6 nM.

For the compound `CCNC(=O)c1cc2c(-c3cc(N=S(C)(C)=O)ccc3Oc3c(C)cccc3Cl)cn(C)c(=O)c2[nH]1` [Example 7, 4-{2-(2-chloro-6-methylphenoxy)-5-{[dimethyl(oxo)-λ^6-sulfanylidene]amino}phenyl}-N-ethyl-6-methyl-7-oxo-6,7-dihydro-1H-pyrrolo[2,3-c]pyridine-2-carboxamide], the IC50 was 24.3 nM in assay [3], 0.34 nM in assay [4], 152 nM in assay [1] and 2.3 nM in assay [2].

As for `Cn1cc(-c2cc(N=S(C)(C)=O)ccc2Nc2ccc(F)cc2F)c2cc[nH]c2c1=O` [Example 8, 4-{2-(2,4-difluorophenyl)amino-5-[dimethyl(oxo)-λ^6-sulfanylidene]aminophenyl}-6-methyl-1,6-dihydro-7H-pyrrolo[2,3-c]pyridin-7-one], the IC50 amounted to 2.4 nM in assay [3], 1.3 nM in assay [4], 16.1 nM in assay [1] and 9.3 nM in assay [2].

For the compound `Cc1ncccc1Oc1ccc(N=S(C)(C)=O)cc1-c1cn(C)c(=O)c2[nH]ccc12` [Example 9, 4-{5-{[dimethyl(oxo)-λ^6-sulfanylidene]amino}-2-[(2-methyl-pyridin-3-yl)oxy]phenyl}-6-methyl-1,6-dihydro-7H-pyrrolo[2,3-c]pyridin-7-one], the IC50 in assay [3] was found to be 3 nM; in assay [4], 0.75 nM.

Regarding `CCNC(=O)c1cc2c(-c3cc(N=S(C)(C)=O)ccc3Oc3c(C)cc(F)cc3C)cn(C)c(=O)c2[nH]1` [Example 10, 4-{5-{[dimethyl(oxo)-λ^6-sulfanylidene]amino}-2-(4-fluoro-2,6-dimethylphenoxy)phenyl}-N-ethyl-6-methyl-7-oxo-6,7-dihydro-1H-pyrrolo[2,3-c]pyridine-2-carboxamide], the IC50 in assay [3] stood at 96.3 nM; in assay [4], 0.53 nM; in assay [1], 240 nM; in assay [2], 66.3 nM.

Regarding `Cc1cc(F)cc(C)c1Oc1ccc(N=S(C)(C)=O)cc1-c1cn(C)c(=O)c2[nH]ccc12` [Example 11, 4-{5-{[dimethyl(oxo)-λ^6-sulfanylidene]amino}-2-(4-fluoro-2,6-dimethylphenoxy)phenyl}-6-methyl-1,6-dihydro-7H-pyrrolo[2,3-c]pyridin-7-one], the half-inhibitory concentration (IC50) in assay [3] amounted to 29.4 nM; in assay [4], 1.3 nM; in assay [1], 124 nM; in assay [2] it was 53.2 nM.

Consider `Cn1cc(-c2cc(N=S(C)(C)=O)ccc2OCC2CCOC2)c2cc[nH]c2c1=O` (stereo not drawn) [Example 12, 4-{5-{[dimethyl(oxo)-λ^6-sulfanylidene]amino}-2-[(tetrahydrofuran-3-yl)methoxy]phenyl}-6-methyl-1,6-dihydro-7H-pyrrolo[2,3-c]pyridin-7-one], for which the half-inhibitory concentration (IC50) in assay [3] amounted to 4.1 nM; in assay [4], 1.1 nM; in assay [1] it was 27.8 nM; in assay [2], 20.7 nM.

In the case of `CCOC(=O)c1cc2c(-c3cc(N=S(C)(C)=O)ccc3Oc3c(C)cc(F)cc3C)cn(C)c(=O)c2[nH]1` [Example 14, Ethyl 4-{5-{[dimethyl(oxo)-λ^6-sulfanylidene]amino}-2-(4-fluoro-2,6-dimethylphenoxy)phenyl}-6-methyl-7-oxo-6,7-dihydro-1H-pyrrolo[2,3-c]pyridine-2-carboxylate], the IC50 is 27.9 nM in assay [3], 4 nM in assay [4], 139 nM in assay [1] and 72 nM in assay [2].

For the compound `Cc1cn(-c2ccc(N=S(C)(C)=O)cc2-c2cn(C)c(=O)c3[nH]ccc23)ccc1=O` [Example 17, 4-{5-{[dimethyl(oxo)-λ^6-sulfanylidene]amino}-2-[3-methyl-4-oxopyridin-1(4H)-yl]phenyl}-6-methyl-1,6-dihydro-7H-pyrrolo[2,3-c]pyridin-7-one], the half-maximal inhibitory concentration (IC50) worked out at 330 nM in assay [3] and 4 nM in assay [4].

For `Cc1cc(F)cc(C)c1Oc1ccc(N=S(C)(C)=O)cc1-c1cn(C)c(=O)c2[nH]c(C(=O)NCC(F)(F)F)cc12` [Example 22, 4-{5-{[dimethyl(oxo)-λ^6-sulfanylidene]amino}-2-(4-fluoro-2,6-dimethylphenoxy)phenyl}-6-methyl-7-oxo-N-(2,2,2-trifluoroethyl)-6,7-dihydro-1H-pyrrolo[2,3-c]pyridine-2-carboxamide], the IC50 stood at 188 nM in assay [3] and 0.88 nM in assay [4].
